Measured values: US9968579B2, “ATRA for modulating Pin1 activity and stability” (Beth Israel Deaconess Medical Center, Inc., priority 2014, dated 2018)
Each block holds one compound with its values, some of them ahead of it.

What was measured:
Pin1 acetylation = Pin1 acetylation in cells (Flag IP, acetyl-lysine immunoblot); assay type: cell-based
Excerpt: FIG. 1 depicts HTS results for glucose starvation induced Pin1 deacetylation in cells 100. In order to perform glucose starvation induced Pin1 deacetylation in cells, cells were transfected with Flag-Pin1 and subjected to various stresses, followed by Flag IP before with immunoblotting acetyl-lysine (AcK) or Flag antibody. Glu-, glucose starvation; HS, heat shock; UV, UV radiation. […] Overexpression of p300-HA increased Pin1 acetylation in cells. Various histone acetyl transferases were co-transfected with Flag-Pin1 into cells, followed by assaying acetylated Pin1. p300 inhibitors, Garcinol (Gar) and Anacardic acid (AnAc), reversed p300-increased Pin1 acetylation.
To corroborate this notion, 2-deoxyglucose (2-DG), a glucose analog, was used to mimic glucose starvation (Wick et al., 1955). […] Protein acetylation may be catalytically modulated by a particular pair of histone acetyl transferase (HAT) and deacetylase (HDAC) (Yang and Seto, 2007). To identify the HAT and HDAC that modulates Pin1 acetylation, Flag-tagged Pin1 was expressed with several HATs including p300, CBP or GCN5 in cells, followed by coimmunoprecipitation (Co-IP) with anti-Flag antibody and immunoblotting with anti-acetyl lysine antibody.

Pin1 [1] = target: T1, Pin1 (Homo sapiens, UniProt Q13526); test: In vitro PPIase assay; conditions: dose-dependent
Pin1 PPIase domain = target: T2, Pin1 PPIase domain (Homo sapiens, UniProt Q13526); test: FP-HTS / FP assay, competition with pTide probe for Pin1 binding; conditions: for interaction with Pin1 in FP assay: 0.5 h or 24 h incubation with Pin1; for Pin1 binding among retinoids tested: FIG. 4F
T2 construct: Pin1 PPIase domain was used instead of its full-length protein
Excerpt: A FP-HTS screening for small molecule compounds that may compete with pTide for binding to dephosphorylated and thus activated Pin1 was developed. Pin1 PPIase domain was used instead of its full-length protein to ensure the identification of compounds that selectively target the catalytic site of monomeric Pin1. The HTS probe pTide was conjugated with FITC or TAMRA and assay conditions optimized to ensure that the probe only binds to the catalytic active site with certain essential residues, such as K63 and R69 (PDB: 2Q5A).
(§1) As observed in FIGS. 4B and 4C, 13cRA and its pairing compound ATRA include a carboxylic acid and a hydrophobic six-membered aromatic ring.
To examine whether the carboxylic acid in ATRA serves as an alternative of phosphate group that binds to Pin1, several structurally similar retinoids with substituted carboxylic or aromatic groups, as well as the new generation of retinoid drugs including Fenretinide and Bexarotene were tested for Pin1 binding.

cyclin D1 promoter = test: Cyclin D1 promoter activation by Pin1; assay type: cell-based; conditions: dose-dependent
Excerpt: FIG. 6 illustrates study results 600 in which ATRA may have anticancer activity in other cancer types. Breast cancer was used as model due to the substantial oncogenic role of Pin1 in vitro and in vivo. The first step was to test whether ATRA may reverse the oncogenic phenotypes induced by Pin1 overexpression, including induction of centrosome amplification, activation of the cyclin D1 promoter, and enhancement of foci formation.

[2] = tested on: MDA-MB-231 cells expressing Q33K or E100D Pin1 mutant; test: Xenograft of MDA-MB-231 cells expressing Q33K or E100D Pin1 mutant; design: species or system nude mice; conditions: mouse, in vivo
Method: (H-J) ATRA inhibited tumor growth of MDA-MB-231 cells in mice, even after over-expression of monomeric Q33K or E100D Pin1 mutant. Nude mice were injected with 2×10^6 MDA-MB-231 cells and treated with ATRA pellets at indicated dosages. Tumors were harvested 7 weeks later. Quantitative curve of tumor volumes developed by Q33K (I) or E100D (J)-expressing MDA-MB-231 in the nude mice (n=3).
It was examined whether ATRA is suitable for treating tumors driven by cancer-derived monomeric Pin1 mutants given that it induces degradation of monomeric Pin1. It is stably expressed WT, Q33K or E100D Flag-Pin1 in MDA-MB-231 cells, and then treated them with ATRA. […] Collectively, ATRA has potent anti-tumor activity against breast cancer driven by WT Pin1 or its cancer-derived monomeric mutants via ablating Pin1.

MDA-MB-231 cells = test: MDA-MB-231 xenograft in nude mice; assay type: in vivo, female nude mice; conditions: intraperitoneally 3 times a week for 8 weeks
Method: (A, B) ATRA inhibited tumor growth of MDA-MB-231 cells in mice. Female nude mice were flank-inoculated with 2×10^6 MDA-MB-231 cells and, 1 week later, implanted with 5 or 10 mg 21 day slow-releasing ATRA pellets. Tumor sizes were measured weekly and tumor tissues were collected from the mice after 7 weeks (A). Curves of tumor volume were plotted after calculation with formula of L×W^2×0.52 (B) (n=3).
FIG. 7 illustrates study results 700 in which the slow-releasing ATRA inhibits human triple negative breast cancer tumor growth in mice. In the pilot experiments, female nude mice were subcutaneously injected with MDA-MB-231 cells into the flank, followed by administering ATRA or vehicle intraperitoneally 3 times a week for 8 weeks. […] This ATRA's modest anti-tumor activity could be due to its short half-life of less than 1 h in humans. Thus, slow-releasing ATRA pills to maintain its constant drug level in mice was used. Mice were again subcutaneously injected with MDA-MB-231 cells into the flank and implanted 1 week later with slow-releasing ATRA or placebo pills for 8 weeks. […] Tumor samples were then collected at the end and immunoblotted with antibodies against Pin1 and its target cyclin D1.

[3] = tested on: Pin1 and substrate oncogenes and tumor suppressors; test: Protein levels of Pin1 and its substrates in breast cell lines; assay type: cell-based, human
Excerpt: (I, J) Either ATRA (I) or inducible Pin1 KD (J) shared the same ability to reduce protein levels of Pin1 and its substrate oncogenes including cyclin D1, HER2, ERα, Akt, NFkB/p65, c-Jun and PKM2 as well as to increase protein levels of Pin1 substrate tumor suppressors, Smad and SMRT, in breast cancer MDA-MB-231, SKBR3 and T47D cells, with ATRA having little effects on normal MCF10A cells. TNBC, triple negative breast cancer.
To further support that ATRA targets Pin1 in breast cancer, it was examined whether ATRA would affect protein levels of a selected set of oncogenes and tumor suppressors, whose protein stability is shown to be regulated by Pin1 in breast cancer. […] To further support that these effects of ATRA are due to Pin1 degradation, it was stably introduced tetracycline-inducible Pin1 KD into these cells. Inducible Pin1 KO produced the same effects on the oncogenes and tumor suppressors, as did ATRA (FIG. 6J). Taken together, ATRA selectively ablated activated Pin1 to inhibit many cancer-driving pathways simultaneously.

[4] = tested on: PML-RARα and Pin1 in NB4 cells; test: PML-RARα and Pin1 protein levels in NB4 cells; assay type: cell-based, human
[5] = tested on: APL cells isolated from hCG-PML-RARα transgenic mice
AU565 cells = test: ATRA sensitivity of AU565 cells in combination with SIRT1 inhibitors; assay type: cell-based, human; conditions: ATRA-resistant AU565 cells
Excerpt: Moreover, SIRT1 KD cells were more sensitive to growth inhibition, and Pin1 degradation induced by ATRA. These findings support the notion that ATRA selectively targets the activated Pin1 monomer.

NB4 cells = test: Cell growth of NB4 cells; assay type: cell-based, human; conditions: combination with 1.5 μM ATRA; superior to high dose ATRA
Excerpt: (K) Potentiated effects of ATRA with SIRT1 inhibitors, NAM or Splito, on cell growth of NB4.
Next, in a consideration to test the role of activated Pin1 monomer in APL, the anti-proliferative effect of ATRA in the presence of the SIRT1 inhibitors, NAM or Splito, to deplete the monomeric Pin1 reservoir was examined.

breast cancer cells = test: Effect of pan-RARs inhibitor/activator on ATRA-induced Pin1 degradation and growth inhibition; assay type: cell-based, human
Excerpt: To examine whether the inhibitory effects of ATRA on breast cancer cell growth were related to RAR activation, Ro-415253 and AC-93253 were used. […] Thus, ATRA-mediated growth inhibition is likely via Pin1 degradation in breast cancer cells, as in APL cells.

Pin1 S71E mutant = Pin1 S71E mutant (Homo sapiens, UniProt Q13526, S71E); test: Binding to phosphorylation-mimicking Pin1 S71E mutant
Excerpt: as §1
The levels of S71 phosphorylation in different cell lines were tightly correlated with ATRA's sensitivity. […] It has been previously shown that phosphorylation on S71 forms salt bridges with K63 and R69, which are the same two residues that coordinated for the binding to the carboxylic acid group of ATRA (FIG. 6H). Thus S71 phosphorylation by DAPK1 may regulate ATRA's sensitivity of cancer cells.

Pin1 [6] = target: T1, Pin1; conditions: read-out: Kd (affinity for Pin1); cited from earlier work
cells = conditions: cited from earlier work

Compound: O=CC[C@@H](O)[C@H](O)[C@H](O)CO [2-DG, 2-deoxyglucose]
Pin1 acetylation (Pin1 acetylation; mimic of glucose starvation): reduction in Pin1 acetylation in a time- or dose-dependent manner

Compound: CC1=C(/C=C/C(C)=C/C=C/C(C)=C\C(=O)O)C(C)(C)CCC1 [13cRA, 13-cis-retinoic acid]
inhibition of Pin1 PPIase activity (Pin1 [1]): completely inhibited
interaction with Pin1 in FP assay (Pin1 PPIase domain): interacted with Pin1 in a dose-dependent manner
rank as Pin1 inhibitor hit by Z score in FP-HTS (Pin1 PPIase domain; 8200 compound chemical libraries): No. 1 hit

Compound: CC1=C(/C=C/C(C)=C/C=C/C(C)=C/C(=O)O)C(C)(C)CCC1 [ATRA, all-trans-retinoic acid]
inhibition of Pin1 activation of the cyclin D1 promoter (cyclin D1 promoter): fully inhibited
Pin1 mutants and cyclin D1 in tumors [2]: dose-dependently reduced both Q33K and E100D Pin1 mutants and cyclin D1 in tumors
inhibition of Q33K or E100D Pin1 mutant-promoted xenograft tumor growth [2]: dose-dependently and effectively inhibited
tumor size (MDA-MB-231 cells): slightly smaller tumors than control mice
protein levels of Pin1 and oncogenic substrates (cyclin D1, HER2, ERα, Akt, NFkB/p65, c-Jun, PKM2) ([3]; T47D, SKBR3 or MDA-MB-231): dose-dependent protein reduction
protein levels of tumor suppressor substrates Smad2/3 or SMRT ([3]; T47D, SKBR3 or MDA-MB-231): protein induction
changes in Pin1, oncogenes or tumor suppressors ([3]; normal MCF10A cells): no appreciable changes
interaction with Pin1 in FP assay (Pin1 PPIase domain): interacted with Pin1 in a dose-dependent manner
Pin1 binding among retinoids tested (Pin1 PPIase domain): most potent
Pin1 binding potency, ATRA versus 13cRA (Pin1 PPIase domain; after 0.5 h Pin1 incubation): more potent than 13cRA
Pin1 binding potency, ATRA versus 13cRA (Pin1 PPIase domain; after 24 h Pin1 incubation): the same potency

Compound: CCCCCCCCCCCCCCCc1cccc(O)c1C(=O)O [Anacardic acid]
effect on p300-increased Pin1 acetylation (Pin1 acetylation; p300 over-expressed): reversed

Compound: C=C(c1ccc(C(=O)O)cc1)c1cc2c(cc1C)C(C)(C)CCC2(C)C [Bexarotene]
Pin1 binding among retinoids tested (Pin1 PPIase domain): only marginal Pin1 interaction

Compound: O=C(O[C@@H]1Cc2c(O)cc(O)cc2O[C@@H]1c1cc(O)c(O)c(O)c1)c1cc(O)c(O)c(O)c1 [EGCG]
PML-RARα degradation [4]: induced PML-RARα degradation in a dose-dependent manner
Pin1 degradation [4]: inhibited Pin1 without degrading it
PML-RARα in the bone marrow ([5]; after 20 days): dramatically reduced
condition of treated mice ([5]; mouse, in vivo): rather sick
potency in reducing PML-RARα and spleen size compared with ATRA ([5]; mouse, in vivo): less potent
spleen weights ([5]; versus enlarged spleens in placebo group): remained nearly at basal levels

Compound: CC1=C(/C=C/C(C)=C/C=C/C(C)=C/C(=O)Nc2ccc(O)cc2)C(C)(C)CCC1 [Fenretinide]
Pin1 binding among retinoids tested (Pin1 PPIase domain): only marginal Pin1 interaction

Compound: NC(=O)c1cccnc1 [NAM]
increase of ATRA sensitivity (AU565 cells): 2 orders of magnitude
effect on anticancer effects of low dose ATRA (NB4 cells): greatly potentiated

Compound: CCOC(=O)CN1C(=O)c2ccc3c4c(ccc(c24)C1=O)C(=O)N(CC(=O)OCC)C3=O [PiB]
PML-RARα degradation [4]: induced PML-RARα degradation in a dose-dependent manner
Pin1 degradation [4]: inhibited Pin1 without degrading it

Compound: CCCCCCCOc1cc2c(cc1/C(C)=C/c1ccc(C(=O)O)cc1)C(C)(C)CCS2(=O)=O [Ro-415253]
effect on Pin1 degradation or cell growth inhibition induced by ATRA (breast cancer cells): neither the pan-RARs inhibitor nor the pan-RARs activator had any obvious effects

Compound: O=C1CCc2c(ccc3ccccc23)O1 [Splito]
effect on ATRA sensitivity (AU565 cells): increase ATRA sensitivity
effect on anticancer effects of low dose ATRA (NB4 cells): greatly potentiated

Second part, led by results:

Pin1 binding among retinoids tested (Pin1 PPIase domain): completely inactive
Compound: CC1=C(/C=C/C(C)=C/C=C/C(C)=C/C=O)C(C)(C)CCC1 [retinal]

Pin1 binding among retinoids tested (Pin1 PPIase domain): completely inactive
Compound: CC1=C(/C=C/C(C)=C/C=C/C(C)=C/CO)C(C)(C)CCC1 [retinol]

Pin1 binding among retinoids tested (Pin1 PPIase domain): completely inactive
Compound: CC(=O)OC/C=C(C)/C=C/C=C(C)/C=C/C1=C(C)CCCC1(C)C [retinyl acetate]

interaction with Pin1 in FP assay (Pin1 PPIase domain): negative control
Compound: O=C(O)c1ccccc1O [salicylic acid]

binding to Pin1 S71E mutant (Pin1 S71E mutant): unable to bind
Compound: Bth-d-phos.Thr-Pip-Nal [pTide]
Kd (Pin1 [6]): 1.2 nM
ability to enter cells (cells): cannot enter cells
